Key:
Test in all cases: relative viability (nuclei count vs DMSO), 5 days (fraction); higher = more cells survive
[1] = compound: Cc1ccc(NC(=O)c2ccc(CN3CCN(C)CC3)cc2)cc1Nc1nccc(-c2cccnc2)n1 [Imatinib] + CC(=O)c1c(C)c2cnc(Nc3ccc(N4CCNCC4)cn3)nc2n(C2CCCC2)c1=O [Palbociclib] (partner 0.5 µM)
Procedure, shortened: (§1)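 Lung cancer cell lines were pin-tool dosed in 1536-well plates on the day after seeding, with either a lone drug or a fixed anchor-drug dose plus five library-drug doses (not always all listed) in √10 steps. Nuclei were counted on 4× images after 5 days. Relative viability is the ratio of treated-well to vehicle-well nuclei counts, with each value a median of duplicate plates.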

[2] = compound: Cc1ccc(NC(=O)c2ccc(CN3CCN(C)CC3)cc2)cc1Nc1nccc(-c2cccnc2)n1 [Imatinib] + CC1(C)CCC(c2ccc(Cl)cc2)=C(CN2CCN(c3ccc(C(=O)NS(=O)(=O)c4ccc(N[C@H](CCN5CCOCC5)CSc5ccccc5)c(S(=O)(=O)C(F)(F)F)c4)cc3)CC2)C1 [Navitoclax] (partner 0.5 µM)
Procedure, shortened: as §1

[3] = compound: Cc1ccc(NC(=O)c2ccc(CN3CCN(C)CC3)cc2)cc1Nc1nccc(-c2cccnc2)n1 [Imatinib] + C[C@@H](Oc1cc(-c2cnn(C3CCNCC3)c2)cnc1N)c1c(Cl)ccc(F)c1Cl [Crizotinib] (partner 1 µM)
Procedure, shortened: as §1

[4] = compound: Cc1ccc(NC(=O)c2ccc(CN3CCN(C)CC3)cc2)cc1Nc1nccc(-c2cccnc2)n1 [Imatinib] + O=C(CCCCCCC(=O)Nc1ccccc1)NO [Vorinostat] (partner 1 µM)
Procedure, shortened: as §1

Cell Line | relative viability ([1]; first compound 0.02 µM) | relative viability ([1]; first compound 0.6325 µM) | relative viability ([1]; first compound 2 µM) | relative viability ([2]; first compound 0.02 µM) | relative viability ([2]; first compound 0.2 µM) | relative viability ([2]; first compound 0.6325 µM) | relative viability ([2]; first compound 2 µM) | relative viability ([3]; first compound 0.02 µM) | relative viability ([3]; first compound 0.2 µM) | relative viability ([3]; first compound 0.6325 µM) | relative viability ([3]; first compound 2 µM) | relative viability ([4]; first compound 0.02 µM) | relative viability ([4]; first compound 0.6325 µM) | relative viability ([4]; first compound 2 µM) | relative viability ([1]; first compound 0.06325 µM) | relative viability ([1]; first compound 0.2 µM) | relative viability ([2]; first compound 0.06325 µM) | relative viability ([3]; first compound 0.06325 µM) | relative viability ([4]; first compound 0.06325 µM) | relative viability ([4]; first compound 0.2 µM)
PC-3 [JPC-3] | 0.581 | 0.763 | 0.539 | 0.84 | 0.789 | 0.811 | 0.687 | 0.979 | 1.02 | 0.921 | 0.96 | 0.882 | 0.899 | 0.727 | – | – | – | – | – | –
NCI-H2228 | 1.06 | 0.916 | 0.697 | 0.982 | 1.11 | 0.922 | 0.955 | 0.351 | 0.54 | 0.478 | 0.393 | 0.677 | 0.602 | 1 | 0.73 | 0.664 | 0.891 | 0.383 | 0.692 | 0.724
NCI-H1703 | – | – | – | 1.39 | 0.586 | 0.383 | 0.238 | 0.773 | 0.437 | 0.304 | 0.186 | – | – | – | – | – | 1.12 | 0.88 | – | –
HCC-366 | 0.435 | 0.35 | 0.412 | 1.02 | 1.13 | 1.09 | 1.07 | 1.19 | 0.777 | 0.334 | 0.399 | 0.421 | 0.369 | 0.368 | 0.425 | 0.502 | – | – | 0.307 | 0.467
NCI-H1355 | 0.433 | 0.398 | 0.39 | 1.06 | 0.99 | 0.922 | 0.947 | 1.13 | 1.21 | 1.03 | 1.15 | 0.733 | 0.579 | 0.609 | – | 0.426 | – | – | – | 0.688
NCI-H1563 | – | – | – | – | – | – | – | 0.823 | 0.863 | 0.884 | 0.825 | – | – | – | – | – | – | 0.884 | – | –
HARA | 0.262 | 0.281 | 0.262 | 1.19 | 1.15 | 1.17 | 1.16 | 1.15 | 1.22 | 1.05 | 1.08 | 0.615 | 0.546 | 0.653 | – | 0.264 | 1.18 | 1.09 | – | 0.595
H3255 | 0.316 | 0.338 | 0.308 | 0.512 | 0.44 | 0.497 | 0.548 | 0.636 | 0.816 | 0.889 | 0.793 | 0.873 | – | 0.588 | 0.325 | 0.317 | 0.441 | – | – | 0.765
EMC-BAC-2 | 0.525 | 0.553 | 0.517 | 1.18 | 1.31 | 1.24 | 1.22 | 0.825 | 0.872 | 0.685 | 0.707 | 0.514 | 0.522 | 0.514 | 0.571 | 0.514 | 1.49 | 0.761 | 0.497 | 0.492
COR-L 105 | 0.425 | 0.395 | 0.428 | 1.01 | 0.756 | 0.743 | 0.605 | 0.793 | 0.791 | 0.827 | 0.726 | 1.12 | 0.701 | 0.841 | 0.367 | 0.454 | 0.879 | – | 0.858 | 0.825

— the supplement of paper PMC10307832
